These results are taken from patent publication US10946024B2, “Method for treating cancer” (Epizyme, Inc., priority 2014, dated 2021).

What all share (assay type): cell-based, human
Experiment [1] relates to ATF3, EGR1, CDKN2A expression in HS-SY-II cells. The experiment in a line: Gene expression changes in vitro by RT-PCR, normalized to GAPDH. Set-up: key to ATF3 expression change, significance 0 uM vs. / EGR1 expression change, significance 0 uM vs. / CDKN2A expression change, significance 0 uM vs.: *: Asterisks mean significant changes compared to levels of 0 μM-treated groups.; **: Asterisks mean significant changes compared to levels of 0 μM-treated groups.; ***: Asterisks mean significant changes compared to levels of 0 μM-treated groups.; ****: Asterisks mean significant changes compared to levels of 0 μM-treated groups. Particulars: for ATF3 expression change, significance 0 uM vs. / CDKN2A expression change, significance 0 uM vs. / EGR1 expression change, significance 0 uM vs.: HS-SY-II. Here is the method:
(§1) HS-SY-II and SW982 cells were treated with EZH2 inhibitors (Compound A or EPZ-011989) and collected at the indicated time points. Total RNA isolation and cDNA synthesis were performed using the TaqMan Gene Expression Cells-to-CT kit (4399002, Life technologies) according to the manufacturer's protocol. ATF3, EGR1, CDKN2A and GAPDH expression were analyzed by using the TaqMan Gene Expression Assays (Life technologies, 4331182) and the TaqMan Probes (Hs00231069_m1, Hs00152928_m1, Hs00233365_m1, and Hs99999905_m1, respectively).

The test system of experiment [2] is ATF3, EGR1 expression in SW982 cells. The description is as above. Set-up: key to EGR1 expression change, significance 0 uM vs.: *: Asterisks mean significant changes compared to levels of 0 μM-treated groups.; **: Asterisks mean significant changes compared to levels of 0 μM-treated groups.; ***: Asterisks mean significant changes compared to levels of 0 μM-treated groups.; ****: Asterisks mean significant changes compared to levels of 0 μM-treated groups. Here is the method: as §1

The subject of another experiment is HS-SY-II cells. The experiment in a line: Adherent cell line long-term (14-day) proliferation assay, CellTiter-Glo. Particulars: 14-day long-term proliferation assay. Here is the method: (§2) 96-well plating for 7 day assay: For each adherent cell line, plated cells in a volume of 100 μL in 96-well plates, to be treated in triplicate, either in the evening (to treat with compound the following day) or in morning (to treat with compound in the evening), to allow cells to attach to plates before compound treatment.
(§3) 6-well plates to be split for 7-14 day assay: Plated 2 mL of cells at the correct density in each well of the 6-well plate. Calculated the correct density from the 96-well plate growth curve by multiplying the 96-well density by 30. The factor 30 came from growth area of the 6-well plate divided by the growth area of the 96-well plate (9.5 cm^2/0.32 cm^2=29.7, rounded up to 30), which corresponds to 30-fold more surface area in a 6-well vs. a 96-well plate.
(§4) Day 0: Treated with compound or DMSO by removing media and adding back either 100 μL (for 96-well plate) or 2 mL (for 6-well plate) media with the correct dilutions of compound/DMSO. Table 1 includes an example of 96-well plate map. Plates were incubated for 96 hours.
(§5) Read one 96-well plate with CellTiter-Glo® for a Day 0 reading (media change not necessary for this plate).
(§6) Day 4: Read one 96-well plate with CellTiter-Glo® for a Day 4 reading (media change not necessary for this plate before reading). Replaced media with fresh media containing compound on Day 4 in 96-well plates and 6-well plates.
(§7) Day 7: read final 96-well plate with CellTiter-Glo®.
(§8) Counted individual wells of 6-well plates, and replated cells to initial plating density in 96-well plates, as described above.
(§9) Repeated steps for Days 0-7 for Days 7-14 of the proliferation assay.
(§10) Particularly, approximately 12 hours before compound treatment, HS-SY-II or SW982 cells were plated at the density of 24,000 cells/well and 7,500 cells/well, respectively in 6-well plates. On day 0, cells were treated with either DMSO or compound starting at 10 μmol/L and decreasing in fourfold dilutions. On day 7, the cells in 6-well plates were trypsinized, counted by TC10 automated cell counter (Bio-Rad, Richmond, Calif.) and replated at the density of 800 cells/well and 250 cells/well for HS-SY-II and SW982, respectively in 96-well plates in triplicate. The cells were allowed to adhere to the plate overnight, and treated with either DMSO or compound as on Day 0. On days 0, 7, 11, and 14, cell viability was determined by CellTiter-Glo® Luminescent Cell Viability Assay (Promega) with EnVision 2103 Multilabel Reader (Perkin-Elmer, Wellesley, Mass.). Compound/media was changed with new one on Day 4 and 11. The ratios of the measured values on Days 7, 11, and 14 to that of day 7 were used to plot proliferation from day 7 to day 14, and to calculate the IC50 values on Day 14. […]
For orientation: In ATP-based viability assays light output follows the ATP content of the culture.

Another experiment relates to SW982 cells. The experiment is described as above. Particulars: SW982, 14-day long-term proliferation assay. On the procedure: as §2, §3, §4, §5, §6, §7, §8, §9, §10

Each structure is given as a SMILES string.

Take `CCN(c1cc(C#CCN2CCOCC2)cc(C(=O)NCc2c(C)cc(C)[nH]c2=O)c1C)C1CCC(N(C)CCOC)CC1` (stereo not shown) [EPZ-011989]: the “ATF3 and EGR1 expression” value in experiment [1] (HS-SY-II in vitro culture) is recorded as “upregulated”; in experiment [2] (SW982 in vitro culture) it was “not in SW982”. For the same molecule, in experiment [1] (HS-SY-II in vitro culture), the CDKN2A expression result was “Dose- and time-dependent CDKN2A upregulation”. In addition, the “ATF3 expression change, significance 0 uM vs.” value in experiment [1] (0.1 uM, day 4) is “**”; in experiment [1] (1 uM, day 2), “*”; in experiment [1] (1 uM, day 4), “*”; in experiment [1] (1 uM, day 7), “**”. Moreover, the “CDKN2A expression change, significance 0 uM vs.” value is “****” in experiment [1] (0.1 uM, day 4); “***” in experiment [1] (1 uM, day 2); “****” in experiment [1] (1 uM, day 4); “****” in experiment [1] (1 uM, day 7). For the same molecule, the “EGR1 expression change, significance 0 uM vs.” value in experiment [1] (0.1 uM, day 4) is “**”; in experiment [1] (1 uM, day 4), “**”; in experiment [1] (1 uM, day 7) it was “**”; in experiment [2] (SW 982, 0.1 uM, day 2) it was “*”; in experiment [2] (SW 982, 0.1 uM, day 4), “**”; in experiment [2] (SW 982, 1 uM, day 7), “*”.
Regarding `CCN(c1cc(-c2ccc(CN3CCOCC3)cc2)cc(C(=O)NCc2c(C)cc(C)[nH]c2=O)c1C)[C@H]1CC[C@H](N(C)C)CC1` [Compound E], the “sensitivity of cell proliferation” value in the experiment on HS-SY-II cells is given as “high sensitivity”; in the experiment with SW982 cells, “did not”.
